Entries after “also recorded” stand apart in the source; their conditions may differ.
Columns and labels:
Type in all cases: cell-based, human
hPSC-CMs [1] = experiment: Mitochondrial oxidation of glucose, Seahorse XF96 maximum respiration capacity; conditions: AICAR treated vs control
Protocol: The Seahorse XF96 extracellular flux Analyzer™ was used to assess mitochondria function with glucose as substrate. Cell preparation and treatment for this assay were the same as the palmitate assay. On the assay day, culture medium was changed to base media (unbuffered DMEM, Sigma D5030, supplemented with 2 mM glutamine, 25 mM glucose, 1 mM pyruvate) 1 hour before the assay and for the duration of the measurement. Selective inhibitors were injected during the measurements to achieve final concentrations of oligomycin at 2.5 μM, FCCP at 1 μM, rotenone at 2.5 μM, and antimycin A at 2.5 μM. The OCR values were further normalized to the number of cells present in each well, quantified by Hoechst staining. Maximal OCR was the OCR difference between uncoupler FCCP and ATPase inhibitor oligomycin. Due to variations in the absolute magnitude of OCR measurements in different experiments, the relative AICAR treated/untreated control levels were used to compare and summarize independent biological replicates (N=6).

hPSC-CMs [2] = experiment: Quantitative RT-PCR gene expression in cardiomyocytes
Protocol: Total RNA was isolated using the Qiagen RNeasy Kit™, and mRNA was reverse transcribed using the Superscript™ III first strand cDNA synthesis kit (Invitrogen®). All primers were purchased from Real Time Primers, and qRT-PCR was performed using SYBR™ green chemistry and an ABI 7900HT instrument or TAQMAN™ with BIORad CXF384™. Samples were normalized using hypoxanthine-guanine phosphoribosylthransferase (HPRT) as a housekeeping gene. The sequences of the primers are listed below in Table 1. The primers used for titin isoforms were adapted from^29. All Q-RT-PCR assays were performed in triplicate on control and experimental groups and firstly normalized to hHPRT level and then normalized against control cardiomyocytes. N=4-5 independent experiments.

hPSC-CMs [3] = experiment: Electron microscopy and point counting of relative mitochondrial volume; conditions: after AICAR treatment; control 0.068±0.006
Protocol: Adherent cells in tissue culture dishes were fixed for transmission electron microscopy in half-strength Karnovsky's fixative (2.0% paraformaldehyde, 2.5% glutaraldehyde, 0.1M phosphate buffer, pH 7.4) overnight. The cells were then washed in 0.1M phosphate buffer two times (5 minutes each) and post-fixed in 1.0% OsO4 in 0.1M phosphate buffer. Cells were rinsed twice (5 minutes each) then dehydrated in […], 70% and 90% alcohol, 2 minutes each, then in 100% alcohol twice (5 minutes each). Cells were embedded in Polybed 812 Resin™ (Ted Pella®, Redding, Calif.) by first infiltrating with a mixture of 50% alcohol/50% polybed for 1 hour and then pure polybed for 3 hours. Beem capsules filled with fresh resin were inverted over areas of cells. Polymerization procedure was performed for 24 hours at 65° C. Removal of beem capsules was achieved by placing plates in boiling water then gently peeling the capsule containing the polymerized resin and cells away from the plastic plate. Sections for light and transmission electron microscopy were cut using a Reichert Ultracut E Microtome™. […] The relative mitochondrial volume was calculated by point counting, in which 20 horizontal and 20 perpendicular lines were drawn in the images and the crosspoints that overlapped with mitochondria was counted and then divided by the total points.

hPSC-CMs [4] = experiment: Immunocytochemistry, imaging and morphological analysis (cell size, circularity index)
Protocol: Cells were fixed in 4% paraformaldehyde for 10 min followed by PBS wash. The fixed cells were blocked with 1.5% normal goat serum for 1 hour at room temperature and incubated overnight at 4° C. with primary antibodies. Mouse anti-α-actinin (Sigma) was used. The samples were rinsed with PBS and incubated with a secondary antibody. Samples subjected to F-actin staining were incubated with TRITC-labeled phalloidin (Sigma) for 5 min at room temperature. Nuclei were stained with Hoechst 33342. Fluorescent images were acquired using a Zeiss AxioCam™ mounted on a Zeiss AxioObserver Microscope™, and confocal images were processed and quantified using NIS Elements. Each cell was analyzed for cell size and circularity index.

[5] = system: cardiomyocytes from ARVD/C hiPSCs; experiment: TUNEL cell viability assay, cardiomyocytes from mutant PKP2 (ARVD/C) hiPSCs; conditions: two weeks treatment, TUNEL with α-actinin co-stain
Protocol: (§1) The normal and mutant Plakophilin 2 (PKP2) cells were generated as described previously^37. Induced pluripotent cells were cultured with E8 medium in Matrigel® coated plates. Cardiomyocytes were obtained using a protocol based on Lian et al^38 that involves Wnt agonist CHIR 99021 in the early stages of differentiation followed by the Wnt antagonist IWP2 under monolayer condition. Before Day 7, cells were cultured in RPMI plus B27 without insulin while on Day 7 and afterwards, EB media (KO-DMEM with 2% FBS, 1 mM NEAAs, 1× GlutaMAX, 1 mM mercaptoethanol, and penicillin/streptomycin) was used. At 30 days of differentiation, beating EBs were treated with three factors (3F) (50 μg/ml insulin, 0.5 μM dexamethasone, and 0.25 mM IBMX) or five factors (5F) (3F plus PPAR-γ agonists 5 μM rosiglitazone and 200 μM indomethacin) media as described earlier or treated with 1 mM AICAR or AICAR plus rosiglitazone and indomethacin for two weeks. TUNEL staining with In Situ Cell Death Detection Kit TMR Red™ (Roche®) was used to assess cell viability after conducting different treatment. TUNEL staining was co-stained with anti-α-actinin antibody so that cardiomyocyte-specific apoptosis could be assessed.

control cardiomyocytes = experiment: TUNEL cell viability assay, control cardiomyocytes from normal iPSCs; conditions: two weeks treatment, TUNEL with α-actinin co-stain
Protocol: as §1

[6] = AICAR treated vs control hPSC-CMs
[7] = hPSC-CMs, normalized to HPRT then to control cells
[8] = normalized to HPRT then to control cells

For NC(=O)c1ncn([C@@H]2O[C@H](CO)[C@@H](O)[C@H]2O)c1N [AICAR, 5-amino-4-imidazolecarboxamide riboside-1-β-D-ribofuranoside], the “maximum mitochondrial respiration capacity” value (hPSC-CMs [1]) was “significantly increased”, the cTnI expression levels (hPSC-CMs [2]; [6]) was “upregulated” and the “ssTnI to cTnI ratio” value (hPSC-CMs [2]; [6]) was “significantly downregulated”. The “titin N2B expression level” value (hPSC-CMs [2]; [6]) was “significantly upregulated”, the “titin N2BA expression level” value (hPSC-CMs [2]; [6]) was “did not change” and the “titin N2BA to N2B ratio” value (hPSC-CMs [2]; [6]) was “significantly down-regulated”. The “total titin expression level” value (hPSC-CMs [2]; [6]) was “did not change”, the “FABP and PDK4 gene expression levels in cardiomyocytes derived from RUES2 hESCs” value (hPSC-CMs [2]; RUES2 hESC-derived cardiomyocytes) was “same trend of changes” and the “fatty acid binding protein (FABP) expression level” value (hPSC-CMs [2]; [7]) was “significant increase”. For the same compound, the “pyruvate dehydrogenase kinase-4 (PDK4) expression level” value (hPSC-CMs [2]; [7]) was “significant increase”, the “PGC-1α mRNA level” value (hPSC-CMs [2]; [8]) was 2.07±0.31 and the “estrogen-related receptor α (ERR α) mRNA level” value (hPSC-CMs [2]; [8]) was 1.50±0.12. The “mitochondrial transcription factor A (TFAM) mRNA level” value (hPSC-CMs [2]; [8]) was 2.03±0.11, the “peroxisome proliferator activated receptor alpha (PPARα) mRNA level” value (hPSC-CMs [2]; [8]) was 1.78±0.22 and the KCNJ2 expression (hPSC-CMs [2]; vs. control) was 1.71±0.17 fold. For the same compound, the SCN5a expression (hPSC-CMs [2]; vs. control) was 1.58±0.2 fold, the “α-myosin heavy chain (α-MHC) expression” value (hPSC-CMs [2]; vs. control) was 2.64±0.51 fold and the mitochondrial volume fraction (hPSC-CMs [3]) was 0.119±0.013. The circularity index (hPSC-CMs [4]; AICAR-treated hPSC-CMs, control 0.51±0.01) was 0.40±0.02, the cell area (hPSC-CMs [4]; AICAR-treated hiPSC-CMs, control 1141±40) was 2321±120 μm^2 and the “apoptosis / cell death in cardiomyocytes from ARVD/C (mutant PKP2) hiPSCs” value [5] was “induced significant apoptosis; also recorded: induced significant cell death”. For the same compound, the “apoptosis in control cardiomyocytes” value (control cardiomyocytes) was “None of the treatment groups significantly leads to apoptosis”.

Source: patent US20220152117A1, “METHODS OF PROMOTING CELLULAR MATURATION WITH AMPK ACTIVATORS” (UNIVERSITY OF WASHINGTON, priority 2019, published 2022)
